Results as given in patent US4820723A, “Disubstituted tetrazole leukotriene antagonists and methods for their use thereas” (Eli Lilly and Company, priority 1987, dated 1989).

Assays:
[1] = tested on: pressor response to leukotriene D4; assay: decrease of LTD4 pressor response in pithed rats; assay type: in vivo, Adult male Sprague-Dawley rats; conditions: Rattus norvegicus, iv, 0.25 h, 15 minutes prior to leukotriene D4 challenge (10 μg/kg, i.v.); dose to decrease pressor response by 50%
Method: A further measure of the final product's activity is their ability to decrease the pressor response in pithed rats that are challenged by LTD4. This activity is measured by the following standard procedure
Adult male Sprague-Dawley rats, weighting approximately 300-500 grams, are anesthetized with pentobarbital sodium (60 mg/kg, i.p.). The trachea is cannulated and the rats are ventilated with room air delivered from a rodent respirator (Harvard, model 680; tidal volume of 1 ml/100 grams body weight, 60 cycles/minute). Rats are pithed by passing a steel rod through the right orbit and down the entire length of the spinal column. The rod is left in position for the duration of the experiment. Pulsatile arterial blood pressure is measured from a cannulated carotid artery using a Stathamtransducer (P231D). Mean arterial blood pressure is calculated as diastolic pressure plus 1/3 pulse pressure. Drug solutions are administered i.v. through a catheter placed in a jugular vein. Arterial blood pressure is recorded on a multichannel oscillograph (Beckman, model R511A).
Groups of pithed rats, usually 4-6/group, are pretreated i.v. with a dose of test compound or vehicle (control experiments) 15 minutes prior to leukotriene D4 challenge (10 μg/kg, i.v.). Usually 3-4 doses of the test compound are evaluated in a given study. Blood pressure responses to leukotriene D4 in control and drug-treated pithed rats are then compared and an ED50 dose of antagonist is estimated. ED50 (95% confidence interval) is the calculated dose of antagonist (mg/kg, i.v.) required to decrease the pressor response to leukotriene D4 by 50%.
The ED50 values of selected final products of Formula I are set forth below in Table 2.

[2] = tested on: LTD4 evoked ileal contractions; assay: LTD4 antagonism: inhibition of LTD4 evoked contractions of isolated guinea pig ileum; parameters: species or system Male, Hartley guinea pigs; conditions: 5 min exposure to drug, 50% inhibition of LTD4 responses, 37° C.
Method: Male, Hartley guinea pigs weighing 200-450 grams were killed by decapitation. A section of terminal ileum was removed, the lumen cleaned, and the tissue divided into 2.5 cm segments. The ilea were mounted in 10 ml tissue baths containing Krebs-bicarbonate solution of the following composition in mmoles/liter: KCl, 4.6; CaCl2 ·2H2 O, 1.2; KH2 PO4, 1.2; MgSO4 ·7H2 O, 1.2; NaCl, 118.2; NaHCO3, 24.8; and dextrose, 10.0. The bath fluid was maintained at 37° C. and aerated with 95 percent oxygen and 5 percent CO2. In addition, the buffer contained 1×10^-6 M atropine to reduce ileal spontaneous activity. Isometric measurements were made with a Grass FT03C force-displacement transducer and recorded on a Grass polygraph as change in grams of force. A passive force of 0.5 g. was applied to the tissues. After an appropriate equilibration period, single submaximal control responses to pure LTD4 were obtained. Following a five minute exposure of the ileum to an experimental drug, the control concentration of LTD4 was added to the tissue bath. The response of the ileum to LTD4 in the presence of the drug was compared to the response in the absence of the drug. Various degrees of LTD4 antagonism were obtained using 2-4 different concentrations of an experimental compound on a single ileum.
Percent inhibition of LTD4 evoked ileal contractions

| SMILES | -log IC50 [2] | ED50 [1] |
| --- | --- | --- |
| CCCc1c(OCCCCc2nnn(CC(=O)O)n2)ccc(C(C)=O)c1O [A] | 6.68 | > 30 mg/kg |
| CCCc1c(OCCCCc2nnnn2CC(=O)O)ccc(C(C)=O)c1O [B] | 5.88 | > 30 mg/kg |
| CCCc1c(OCCCc2nnn(CC(=O)O)n2)ccc(C(C)=O)c1O [C] | 5.82 |  |
| CCCc1c(OCCCc2nnnn2CC(=O)O)ccc(C(C)=O)c1O [D] | 5.95 |  |
| CCCc1c(OCCCCCCc2nnn(CC(=O)O)n2)ccc(C(C)=O)c1O [E] | 6.83 | > 30 mg/kg |
| CCCc1c(OCCCCc2nnn(CCCCc3nnn[nH]3)n2)ccc(C(C)=O)c1O [Example 23A, 5-[4-(4-Acetyl-3-hydroxy-2-(n-propyl)phenoxy)butyl]-2[4-(1H-tetrazol-5-yl)butyl]-2H-tetrazole] | 7.65 | 7.5 mg/kg |
| CCCc1c(OCCCCc2nnnn2CCCCC(=O)O)ccc(C(C)=O)c1O [Example 24] | 6.14 |  |
| CCCc1c(OCCCCc2nnn(CCCc3nn[nH]n3)n2)ccc(C(C)=O)c1O [Example 25] | 7.42 | 8.4 mg/kg |
| CCCc1c(OCCCCc2nnn(CCCCCCc3nn[nH]n3)n2)ccc(C(C)=O)c1O [Example 26, 5-4-(4-Acetyl-3-hydroxy-2-(n-propyl)phenoxybutyl]-2-[6-(1H-tetrazol-5-yl)hexyl]-2H-tetrazole] | 7.63 | 18.6 mg/kg |
| CCCc1c(OCCCCc2nnn(CCCCCCC(=O)O)n2)ccc(C(C)=O)c1O [Example 27, 5-[4-(4-Acetyl-3-hydroxy-2-propylphenoxy)butyl]-2H-tetrazole-2-(7-heptanoicacid)] | 7.05 | 12.7 mg/kg |
| CCCc1c(OCCCCc2nnn(CCCCCc3nnn[nH]3)n2)ccc(C(C)=O)c1O [Example 28, 5-[4-(4-Acetyl-3-hydroxy-2-(n-propyl)phenoxy)butyl]-2-[5-(1H-tetrazol-5-yl)pentyl]-2H-tetrazole] | 7.57 | 9.7 mg/kg |
| CCCc1c(OCCCCc2nnn(CCCCCC(=O)O)n2)ccc(C(C)=O)c1O [Example 29] | 7.35 | 8.7 mg/kg |
| CCCc1c(OCCCCc2nnn(Cc3ccc(-c4nn[nH]n4)cc3)n2)ccc(C(C)=O)c1O [Example 30] | 7.54 | 16.8 mg/kg |
| CCCc1c(OCCCCc2nnnn2Cc2ccc(C(=O)O)cc2)ccc(C(C)=O)c1O [Example 33, 5-[4-(4-Acetyl-3-hydroxy-2-(n-propyl)phenoxy)butyl]-1H-tetrazole-1-[para-methylenebenzoic acid]] | 6.30 |  |
| CCCc1c(OCCCCc2nnn(Cc3cccc(-c4nnn[nH]4)c3)n2)ccc(C(C)=O)c1O [Example 34, 5-[4-(4-Acetyl-3-hydroxy-2-(n-propyl)phenoxy)butyl]-2-[meta-(1H-tetrazol-5-yl)benzyl]-2H-tetrazole] | 7.52 | 25.5 mg/kg |
| CCCc1c(OCCCCc2nnn(Cc3cccc(C(=O)O)c3)n2)ccc(C(C)=O)c1O [Example 35, 5-[4-(4-Acetyl-3-hydroxy-2-(n-propyl)phenoxy)butyl]-2H-tetrazole-2-(α-methylene-m-benzoic acid)] | 7.15 | 27.5 mg/kg |
| CCCc1c(OCCCCCc2nnn(CCCc3nn[nH]n3)n2)ccc(C(C)=O)c1O [Example 38] | 6.62 |  |
| CCCc1c(OCCCCCc2nnn(CCCC(=O)O)n2)ccc(C(C)=O)c1O [Example 39, 5-[5-(Acetyl-3-hydroxy-2-(n-propyl)phenoxy)pentyl]-2-[4-butanoic acid]-2H-tetrazole] | 6.37 | 25.8 mg/kg |

More lines, main results first:

| -log IC50 [2] | SMILES | ED50 [1] |
| --- | --- | --- |
| 6.83 | CCCc1c(OCCCCCc2nnn(CCCCc3nnn[nH]3)n2)ccc(C(C)=O)c1O [Example 40, 5-[5-(4-Acetyl-3-hydroxy-2-(n-propyl)phenoxy)pentyl]-2-[4-(1H-tetrazol-5-yl)butyl]-2H-tetrazole] |  |
| 6.81 | CCCc1c(OCCCCc2nnn(CCC(=O)O)n2)ccc(C(C)=O)c1O [Example 44, 5-[4-(4-Acetyl-3-hydroxy-2-propylphenoxy)butyl]-2H-tetrazol-2-(3-propionic acid)] | 10.6 mg/kg |
| 5.83 | CCCc1c(OCCCCc2nnnn2CCC(=O)O)ccc(C(C)=O)c1O [Example 45, 5-[4-(4-Acetyl-3-hydroxy-2-(n-propyl)phenoxy)butyl]-1H-tetrazole-1-[3-propionic acid]] | > 30 mg/kg |
| 7.12 | CCCc1c(OCCCCc2nnn(CCCC(=O)O)n2)ccc(C(C)=O)c1O [Example 46, 5-[4-(4-Acetyl-3-hydroxy-2-propylphenoxy)butyl]-2H-tetrazol-2-(4-butyric acid)] | 8.1 mg/kg |
| 5.89 | CCCc1c(OCCCCc2nnnn2CCCC(=O)O)ccc(C(C)=O)c1O [Example 47, 5-[4-(4-Acetyl-3-hydroxy-2-(n-propyl)phenoxy)butyl]-1-[4-butanoic acid]-1H-tetrazole] | > 30 mg/kg |
| 7.15 | CCCc1c(OCCCCc2nnn(CCCCC(=O)O)n2)ccc(C(C)=O)c1O [Example 48, 5-[4-(4-Acetyl-3-hydroxy-2-propylphenoxy)butyl]-2H-tetrazol-2-(5-pentanoic acid)] | 9.9 mg/kg |
| 6.54 | CCCc1c(OCCCCCCc2nnnn2CCCC(=O)O)ccc(C(C)=O)c1O [Example 50] | 17.3 mg/kg |
| 6.75 | CCCc1c(OCCCCCCc2nnn(CCCC(=O)O)n2)ccc(C(C)=O)c1O [Example 51, 5-[6-(4-Acetyl-3-hydroxy-2-(n-propyl)phenoxy)hexyl]-2H-tetrazole-2-[4-butanoic acid]] | 18.3 mg/kg |
| 7.50 | CCCc1c(Oc2ccc(-c3nnn(CCCc4nn[nH]n4)n3)cc2)ccc(C(C)=O)c1O [Example 59] |  |
| 7.26 | CCCc1c(Oc2ccc(-c3nnn(CCCC(=O)O)n3)cc2)ccc(C(C)=O)c1O [Example 60, 5-[para-(4-Acetyl-3-hydroxy-2-(n-propyl)phenoxy)phenyl]-2H-tetrazole-2-[4-butanoic acid]] |  |
| 5.20 | CCCc1c(OCCCc2nnnn2CCCCC(=O)O)ccc(C(C)=O)c1O [Example 61, 5-[3-(4-Acetyl-3-hydroxy-2-(n-propyl)phenoxy)propyl]-1H-tetrazole-1-[5-pentanoic acid]] |  |
| 6.47 | CCCc1c(OCCCc2nnn(CCCCC(=O)O)n2)ccc(C(C)=O)c1O [Example 62, 5-[3-(4-Acetyl-3-hydroxy-2-propylphenoxy)-propyl]-2H-tetrazol-2-(5-pentanoic acid)] |  |
| 7.51 | CCCc1c(OCCCCn2nnc(CCCC(=O)O)n2)ccc(C(C)=O)c1O [Example 64, 2-[4-(4-Acetyl-3-hydroxy-2-(n-propyl)phenoxy)-butyl]-2H-tetrazole-5-butanoic acid] |  |
| 6.18 | CCCc1c(OCCCCn2nnnc2CCCC(=O)O)ccc(C(C)=O)c1O [Example 65, 1-4-(4-acetyl-3-hydroxy-2-(n-propylphenoxy)butyl]-1H-tetrazole-5-butanoic acid] |  |
| 7.25 | CCCc1c(OCCCCn2nnc(Cc3ccc(C(=O)O)cc3)n2)ccc(C(C)=O)c1O [Example 67, 4-[[2-[4-(4-Acetyl-3-hydroxy-2-(n-propyl)phenoxy)butyl]-2H-tetrazol-5-yl]methyl]benzoic acid] |  |
| 6.66 | CCCc1c(OCCCCn2nnnc2Cc2ccc(C(=O)O)cc2)ccc(C(C)=O)c1O [Example 68] |  |
| 6.59 | CCCc1c(OCCCCCCc2nnnn2CC(=O)O)ccc(C(C)=O)c1O [F] | 27.1 mg/kg |
| 6.3 | CCCc1c(OCCCCCc2nnn(CC(=O)O)n2)ccc(C(C)=O)c1O [G] | > 30 mg/kg |
